We go through 14 compounds from patent publication US20250228239A1, “MOLECULES HAVING PESTICIDAL UTILITY, AND INTERMEDIATES, COMPOSITIONS, AND PROCESSES, RELATED THERETO” (priority 2024, published 2025).

Molecules are shown by their SMILES. Read-outs that look alike come from different tables or passages of the source.

Common to all, as to type: in vivo
The subject of data set [1] is Beet Armyworm (Spodoptera exigua, LAPHEG). Description: Bioassays on Beet Armyworm (BAW), 128-well diet tray assay. The following applies: Spodoptera exigua. The procedure, abridged:
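Second-instar larvae, one to five per well, were placed on artificial diet surface-treated with 50 μg/cm^2 compound in 90:10 acetone-water, eight wells per treatment. Trays were held 5–7 days at 25 °C, 14:10 light-dark. Percent mortality per well was averaged over eight wells.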

Data set [2] concerns Cabbage Looper (Trichoplusia ni, TRIPNI). Put plainly: Bioassays on Cabbage Looper (CL), 128-well diet tray assay. As to conditions: Trichoplusia ni. The essentials:
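Test molecule was dissolved in 90:10 acetone-water, applied to artificial diet at 50 μg/cm^2 and allowed to dry. Second-instar larvae were then added, one to five per well, and trays held at 25° C for five to seven days before mortality was scored and averaged.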

Data set [3] has as its system Yellow Fever Mosquito (Aedes aegypti, AEDSAE). The following applies: for YFM rating: Table ABC / ABC-DP rating. As to the method:
Certain molecules disclosed in this document were tested against YFM using procedures described in the following paragraph. In the reporting of the results, the “GPA & YFM Rating Table” was used (See Table Section).
Master plates containing 400 μg of a molecule dissolved in 100 μL of dimethyl sulfoxide (DMSO) (equivalent to a 4000 ppm solution) are used. A master plate of assembled molecules contains 15 μL per well. To this plate, 135 μL of a 90:10 water/acetone mixture is added to each well. A robot (Biomek® NXP Laboratory Automation Workstation) is programmed to dispense 15 μL aspirations from the master plate into an empty 96-well shallow plate (“daughter” plate). There are 6 reps (“daughter” plates) created per master. The created “daughter” plates are then immediately infested with YFM larvae.
The day before plates are to be treated, mosquito eggs are placed in Millipore water containing liver powder to begin hatching (4 g into 400 mL). After the “daughter” plates are created using the robot, they are infested with 220 μL of the liver powder/larval mosquito mixture (about 1 day-old larvae). After plates are infested with mosquito larvae, a non-evaporative lid is used to cover the plate to reduce drying. Plates are held at room temperature for 3 days prior to grading. After 3 days, each well is observed and scored based on mortality. The results are indicated in the table entitled “Table ABC: Biological Results” (See Table Section).

[4] abbreviates: Beet Armyworm, rating class, read-out: BAW.
[5] abbreviates: Cabbage Looper, rating class, read-out: CL.
Setting [6] is: Yellow Fever Mosquito, rating class.
Setting [7] is: Table ABC: Biological Results, species BAW, read-out: BAW.
[8] abbreviates: Table ABC: Biological Results, species CL, read-out: CL.
[9] abbreviates: Table ABC: Biological Results, species YFM.
The mark [10] stands for this setting: Beet Armyworm, Table ABC / ABC-DP rating, read-out: BAW rating.
The mark [11] stands for this setting: Cabbage Looper, Table ABC / ABC-DP rating, read-out: CL rating.

As for `CC(Cl)CC(=O)Nc1c(F)ccc(NC(=O)c2cc(NC(=O)[C@H]3[C@H](c4ccc(F)c(C(F)(F)F)c4)C3(Cl)Cl)ccc2Cl)c1F` (stereo partly drawn) [F1669, 2-Chloro-N-(3-(3-chlorobutanamido)-2,4-difluorophenyl)-5-((1R,3R)-2,2-dichloro-3-(4-fluoro-3-(trifluoromethyl)phenyl)cyclopropane-1-carboxamido)benzamide], the pest or weed control at 50 µg/cm2 in data set [1] (setting [4]) and in data set [2] (setting [5]) was 50 to 100% throughout. In addition, the YFM entry in data set [3] (setting [6]) was “A (80–100)”.

Consider `Nc1c(F)ccc(NC(=O)c2cc(NC(=O)[C@H]3[C@H](c4ccc(F)c(Cl)c4F)C3(Cl)Cl)ccc2Cl)c1F` (relative stereo) [F1049, trans-N-(3-Amino-2,4-difluorophenyl)-2-chloro-5-(2,2-dichloro-3-(3-chloro-2,4-difluorophenyl)cyclopropane-1-carboxamido)benzamide], for which the pest or weed control at 50 µg/cm2 in data set [1] (setting [7]) and in data set [2] (setting [8]) was 50 to 100% each time. In addition, in data set [3] (setting [9]), the YFM result is reported as “A (80–100)”.

Consider `Cc1c(NC(=O)c2cc(NC(=O)[C@H]3[C@H](c4ccc(F)c(C(F)(F)F)c4)C3(Cl)Cl)ccc2Cl)ccc(NC(=O)C(F)(F)F)c1C` [F1392, 2-Chloro-5-((1R,3R)-2,2-dichloro-3-(4-fluoro-3-(trifluoromethyl)phenyl)cyclopropane-1-carboxamido)-N-(2,3-dimethyl-4-(2,2,2-trifluoroacetamido)phenyl)benzamide], for which the pest or weed control at 50 µg/cm2 in data set [1] (setting [4]) and in data set [2] (setting [5]) was 50 to 100% in each case. In addition, in data set [3] (setting [6]), the YFM entry is “A (80–100)”.

Take `O=C(Nc1ccc(F)c(NC(=O)C(F)F)c1F)c1cc(NC(=O)[C@H]2[C@H](c3cc(Cl)cc(Cl)c3)C2(Cl)Cl)cc(F)c1F` [F1440, 5-((1R,3R)-2,2-Dichloro-3-(3,5-dichlorophenyl)cyclopropane-1-carboxamido)-N-(3-(2,2-difluoroacetamido)-2,4-difluorophenyl)-2,3-difluorobenzamide]: the pest or weed control at 50 µg/cm2 in data set [1] (setting [4]) and in data set [2] (setting [5]) was 50 to 100% in each case. Moreover, the YFM entry in data set [3] (setting [6]) is given as “A (80–100)”.

Turning to `CCC(Cl)C(=O)Nc1c(F)ccc(NC(=O)c2cc(NC(=O)[C@H]3[C@H](c4ccc(F)c(C(F)(F)F)c4)C3(Cl)Cl)ccc2Cl)c1F` (stereo partly drawn) [F1668, 2-Chloro-N-(3-(2-chlorobutanamido)-2,4-difluorophenyl)-5-((1R,3R)-2,2-dichloro-3-(4-fluoro-3-(trifluoromethyl)phenyl)cyclopropane-1-carboxamido)benzamide], the pest or weed control at 50 µg/cm2 in data set [1] (setting [4]) and in data set [2] (setting [5]) was 50 to 100% each time. In addition, the YFM entry in data set [3] (setting [6]) is reported as “A (80–100)”.

Take `Cc1cc([C@@H]2[C@H](C(=O)Nc3ccc(Cl)c(C(=O)Nc4ccc(F)cc4F)c3)C2(Cl)Cl)cc(C(F)(F)F)c1F` (relative stereo) [F1067, cis-2-Chloro-5-(2,2-dichloro-3-(4-fluoro-3-methyl-5-(trifluoromethyl)phenyl)cyclopropane-1-carboxamido)-N-(2,4-difluorophenyl)benzamide]: the pest or weed control at 50 µg/cm2 in data set [1] (setting [7]) and in data set [2] (setting [8]) was 50 to 100% throughout. In addition, in data set [3] (setting [9]), the YFM result is given as “A (80–100)”.

For `O=C(Nc1ccc(F)c(NC(=O)C2CC2(F)F)c1F)c1cc(NC(=O)[C@H]2[C@H](c3ccc(Cl)c(Cl)c3)C2(Cl)Cl)ccc1Cl` (stereo partly drawn) [F1608, 2-Chloro-5-((1R,3R)-2,2-dichloro-3-(3,4-dichlorophenyl)cyclopropane-1-carboxamido)-N-(3-(2,2-difluorocyclopropane-1-carboxamido)-2,4-difluorophenyl)benzamide], the pest or weed control at 50 µg/cm2 in data set [1] (setting [4]) and in data set [2] (setting [5]) was 50 to 100% each time. Also, the YFM result in data set [3] (setting [6]) was “A (80–100)”.

For the compound `COc1c(F)cc(NC(=O)[C@H]2[C@H](c3ccc(F)c(Cl)c3)C2(Cl)Cl)cc1C(=O)Nc1ccc(F)cc1` (relative stereo) [F1218, trans-5-(2,2-Dichloro-3-(3-chloro-4-fluorophenyl)cyclopropane-1-carboxamido)-3-fluoro-N-(4-fluorophenyl)-2-methoxybenzamide], the pest or weed control at 50 µg/cm2 in data set [1] (setting [7]) and in data set [2] (setting [8]) was 50 to 100% each time. For the same compound, in data set [3] (setting [9]), the YFM entry is listed as “A (80–100)”.

As for `CCOC(=O)C(F)C(=O)Nc1c(F)ccc(NC(=O)c2cc(NC(=O)[C@H]3[C@H](c4ccc(F)c(C(F)(F)F)c4)C3(Cl)Cl)ccc2Cl)c1F` (stereo partly drawn) [F1822, Ethyl 3-((3-(2-chloro-5-((1R,3R)-2,2-dichloro-3-(4-fluoro-3-(trifluoromethyl)phenyl)cyclopropane-1-carboxamido)benzamido)-2,6-difluorophenyl)amino)-2-fluoro-3-oxopropanoate], the pest or weed control at 50 µg/cm2 in data set [1] (setting [10]) and in data set [2] (setting [11]) was 50 to 100% each time. The YFM rating result in data set [3] (Yellow Fever Mosquito) was “A (80–100)”.

As to `Nc1c(F)ccc(NC(=O)c2cc(NC(=O)[C@H]3[C@H](c4cc(F)c(Cl)c(Cl)c4)C3(Cl)Cl)ccc2Cl)c1F` (relative stereo) [F1046, trans-N-(3-Amino-2,4-difluorophenyl)-2-chloro-5-(2,2-dichloro-3-(3,4-dichloro-5-fluorophenyl)cyclopropane-1-carboxamido)benzamide], the pest or weed control at 50 µg/cm2 in data set [1] (setting [7]) and in data set [2] (setting [8]) was 50 to 100% in each case. The YFM result in data set [3] (setting [9]) is recorded as “A (80–100)”.

Consider `COc1c(F)cc(NC(=O)[C@H]2[C@H](c3ccc(F)c(Cl)c3)C2(Cl)Cl)cc1C(=O)NCC(F)(F)C(F)(F)F` (relative stereo) [F2060, trans-5-(2,2-Dichloro-3-(3-chloro-4-fluorophenyl)cyclopropane-1-carboxamido)-3-fluoro-2-methoxy-N-(2,2,3,3,3-pentafluoropropyl)benzamide], for which the pest or weed control at 50 µg/cm2 in data set [1] (setting [10]) and in data set [2] (setting [11]) was 50 to 100% throughout. In addition, in data set [3] (Yellow Fever Mosquito), the YFM rating result was “A (80–100)”.

For the compound `CCNC(=O)c1cc(NC(=O)[C@H]2[C@H](c3ccc(F)c(Cl)c3)C2(Cl)Cl)cc(F)c1OC` (relative stereo) [F2057, trans-5-(2,2-Dichloro-3-(3-chloro-4-fluorophenyl)cyclopropane-1-carboxamido)-N-ethyl-3-fluoro-2-methoxybenzamide], the pest or weed control at 50 µg/cm2 in data set [2] (setting [11]) was in the range of 50 to 100%. Moreover, the YFM rating entry in data set [3] (Yellow Fever Mosquito) is “A (80–100)”.

Take `CCNC(=O)c1cc(NC(=O)[C@H]2[C@H](c3ccc(F)c(C(F)(F)F)c3)C2(Cl)Cl)c(F)cc1Cl` [F2083, 2-Chloro-5-((1R,3R)-2,2-dichloro-3-(4-fluoro-3-(trifluoromethyl)phenyl)cyclopropane-1-carboxamido)-N-ethyl-4-fluorobenzamide]: the pest or weed control at 50 µg/cm2 in data set [2] (setting [11]) was 50 to 100%. Also, the YFM rating entry in data set [3] (Yellow Fever Mosquito) is “B (More than 0 – Less than 80)”.

For the compound `O=C(NNc1ccc(C(F)(F)F)cc1)c1cc(NC(=O)[C@H]2[C@H](c3cc(Cl)cc(Cl)c3)C2(Cl)Cl)ccc1Cl` (relative stereo) [F2571, trans-2,2-Dichloro-N-(4-chloro-3-(2-(4-(trifluoromethyl)phenyl)hydrazine-1-carbonyl)phenyl)-3-(3,5-dichlorophenyl)cyclopropane-1-carboxamide], the YFM rating result in data set [3] (Yellow Fever Mosquito) is recorded as “A (80–100)”. Moreover, in data set [3] (about 1 day-old larvae, 4000 ppm master solution diluted with 90:10 water/acetone, 15 μL per well plus 220 μL larval mixture, 3 days, mortality), the “YFM % Control (or Mortality) rating” value is recorded as “A (80–100)”.
